Results from the supplement of paper PMC5908809.

Key:
[1] = tested on: normal primary NK cells, pool 3 (3 donors) (IL-2 2.5 ng/mL); experiment: percent inhibition of viability; higher = more inhibition; conditions: 72 h
IMC-1 (IL-2 20 ng/mL) [2] = experiment: as above; conditions: 72 h
[3] = tested on: normal primary NK cells, pool 1 (3 donors) (IL-2 2.5 ng/mL); experiment: as above; conditions: 72 h
KHYG-1 (IL-2 2.5 ng/mL) [4] = experiment: as above; conditions: 72 h
NK-YS (IL-2 2.5 ng/mL) [5] = experiment: as above; conditions: 72 h
DERL-7 (IL-2 2.5 ng/mL) [6] = experiment: as above; conditions: 72 h
[7] = tested on: normal primary NK cells, pool 1 (3 donors), resting (IL-2 0 ng/mL); experiment: as above; conditions: 72 h
KAI3 (IL-2 2.5 ng/mL) [8] = experiment: as above; conditions: 72 h
NK-92 (IL-2 2.5 ng/mL) [9] = experiment: as above; conditions: 72 h
YT (IL-2 2.5 ng/mL) [10] = experiment: as above; conditions: 72 h
[11] = tested on: normal primary NK cells, pool 2 (3 donors) (IL-2 2.5 ng/mL); experiment: as above; conditions: 72 h
NKL (IL-2 2.5 ng/mL) [12] = experiment: as above; conditions: 72 h
SNK-6 (IL-2 2.5 ng/mL) [13] = experiment: as above; conditions: 72 h
[14] = tested on: normal NK cells expanded with K562-aAPC; experiment: drug sensitivity score (DSS) (DSS units); higher = more sensitive; extreme values may be limits of the assay; conditions: 72 h; IL-2 2.5 ng/mL
Protocol: (§1)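 Drug sensitivity and resistance testing on K562-aAPC-expanded normal NK cells: 5 concentrations (10-fold steps over a 10,000-fold range), 72 h at 37 °C, viability by CellTiter-Glo normalised to DMSO and benzethonium chloride controls; DSS from the fitted curve.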

[15] = tested on: normal NK cells expanded with K562-aAPC; experiment: percent inhibition of viability; higher = more inhibition; conditions: 72 h, IL-2 2.5 ng/mL
Protocol: as §1

[16] = tested on: normal primary NK cells, pool 3 (3 donors) (IL-2 2.5 ng/mL); experiment: drug sensitivity score (DSS) (DSS units); higher = more sensitive; extreme values may be limits of the assay; conditions: 72 h
IMC-1 (IL-2 20 ng/mL) [17] = experiment: as above; conditions: 72 h
[18] = tested on: normal primary NK cells, pool 1 (3 donors) (IL-2 2.5 ng/mL); experiment: as above; conditions: 72 h
KHYG-1 (IL-2 2.5 ng/mL) [19] = experiment: as above; conditions: 72 h
NK-YS (IL-2 2.5 ng/mL) [20] = experiment: as above; conditions: 72 h
DERL-7 (IL-2 2.5 ng/mL) [21] = experiment: as above; conditions: 72 h
[22] = tested on: normal primary NK cells, pool 1 (3 donors), resting (IL-2 0 ng/mL); experiment: as above; conditions: 72 h
KAI3 (IL-2 2.5 ng/mL) [23] = experiment: as above; conditions: 72 h
NK-92 (IL-2 2.5 ng/mL) [24] = experiment: as above; conditions: 72 h
YT (IL-2 2.5 ng/mL) [25] = experiment: as above; conditions: 72 h
[26] = tested on: normal primary NK cells, pool 2 (3 donors) (IL-2 2.5 ng/mL); experiment: as above; conditions: 72 h
NKL (IL-2 2.5 ng/mL) [27] = experiment: as above; conditions: 72 h
SNK-6 (IL-2 2.5 ng/mL) [28] = experiment: as above; conditions: 72 h

Clc1ccc(C(c2ccccc2Cl)C(Cl)Cl)cc1 (stereo not drawn) [Mitotane] (max concentration tested 10000 nM)
percent inhibition of viability [%]
Conditions	1 nM	10 nM	100 nM	1000 nM	10000 nM
DERL-7 (IL-2 2.5 ng/mL) [6]	-3.98	-2.6	-1.88	-5.27	1.52
IMC-1 (IL-2 20 ng/mL) [2]	-4	-2.56	-9	-5.63	-8.85
KAI3 (IL-2 2.5 ng/mL) [8]	-6.14	-3.83	-3.7	-6.65	-4.73
KHYG-1 (IL-2 2.5 ng/mL) [4]	-5.54	-6.16	-6.75	-7.76	-6.11
NK-92 (IL-2 2.5 ng/mL) [9]	-11.9	-11.6	-10.9	-14.2	-13.7
NK-YS (IL-2 2.5 ng/mL) [5]	-3.11	-4.91	-8.11	-1.41	-4.03
NKL (IL-2 2.5 ng/mL) [12]	-23.5	-31.7	-25.8	-21.9	-16.6
SNK-6 (IL-2 2.5 ng/mL) [13]	11.9	12.4	-5.92	-1.09	-8.81
YT (IL-2 2.5 ng/mL) [10]	-5.71	-7.2	-6.08	-5.64	-3.1
[1]	-8.66	-9.61	-7	-8.07	0.73
[3]	-4.65	-4.88	5.61	-1.23	-0.57
[7]	-7.77	-15.2	11.9	-9.1	7.07
[11]	-6.28	-4.83	-5.23	-1.37	-4.6
[15]	-3.47	-5.5	-2.42	-6.05	-4.65

Conditions	drug sensitivity score
DERL-7 (IL-2 2.5 ng/mL) [21]	0
IMC-1 (IL-2 20 ng/mL) [17]	0
KAI3 (IL-2 2.5 ng/mL) [23]	0
KHYG-1 (IL-2 2.5 ng/mL) [19]	0
NK-92 (IL-2 2.5 ng/mL) [24]	0
NK-YS (IL-2 2.5 ng/mL) [20]	0
NKL (IL-2 2.5 ng/mL) [27]	0
SNK-6 (IL-2 2.5 ng/mL) [28]	0
YT (IL-2 2.5 ng/mL) [25]	0
[14]	0
[16]	0
[18]	0
[22]	0
[26]	0

CCc1cncnc1N1CCN(Cc2nc3ccc(C(F)(F)F)cc3[nH]2)CC1 (max concentration tested 10000 nM)
percent inhibition of viability [%]
Conditions	1 nM	10 nM	100 nM	1000 nM	10000 nM
DERL-7 (IL-2 2.5 ng/mL) [6]	3.43	7.18	-5.16	-1.27	14.8
IMC-1 (IL-2 20 ng/mL) [2]	-6.13	-3.43	3.72	11.3	90
KAI3 (IL-2 2.5 ng/mL) [8]	-0.12	-5.66	-9.54	-2.26	28.4
KHYG-1 (IL-2 2.5 ng/mL) [4]	-4.31	-8.31	-0.12	17.2	49.7
NK-92 (IL-2 2.5 ng/mL) [9]	-1.05	10.1	6.83	20.4	62.3
NK-YS (IL-2 2.5 ng/mL) [5]	-2.32	-5.55	-2.77	9.57	47.8
NKL (IL-2 2.5 ng/mL) [12]	-11.3	-11	-6.3	10.8	60.8
SNK-6 (IL-2 2.5 ng/mL) [13]	-7.09	-9.08	8.29	30.2	30.4
YT (IL-2 2.5 ng/mL) [10]	-1.53	-2.69	2.06	11.5	41.9
[1]	-9.93	7.71	7.04	-6.89	26.4
[3]	-2.5	14.2	12.3	11.8	63.6
[7]	-8.97	13.4	10	13.6	75.6
[11]	-7.09	4.46	7.58	8.67	44.9
[15]	-4.68	-5.08	-4.29	0.89	5

Conditions	drug sensitivity score
DERL-7 (IL-2 2.5 ng/mL) [21]	0.17
IMC-1 (IL-2 20 ng/mL) [17]	6.88
KAI3 (IL-2 2.5 ng/mL) [23]	1.03
KHYG-1 (IL-2 2.5 ng/mL) [19]	5.08
NK-92 (IL-2 2.5 ng/mL) [24]	5.84
NK-YS (IL-2 2.5 ng/mL) [20]	4.07
NKL (IL-2 2.5 ng/mL) [27]	5.1
SNK-6 (IL-2 2.5 ng/mL) [28]	6.35
YT (IL-2 2.5 ng/mL) [25]	3.86
[14]	0
[16]	0.75
[18]	5.45
[22]	6.44
[26]	3.74
